# Data: US5134150A, “Inhibition of the 5-lipoxygenase pathway” (priority 1989, dated 1992)
# Experiments:
# [1] = test system: Infiltration of Polymorphonuclear Leukocytes into Sites of Carrageenan-Induced Inflammation; assay: Mouse carrageenan peritonitis (PMN infiltration); type: in vivo, mouse (male Balb/c); conditions: carrageenan peritonitis, mice
# Excerpt: (§1) In the following Examples where mice were used, they were male Balb/c mice (20-28 g), and where rats were used, they were male Lewis rats (180-210 g). All mice and rats were obtained from Charles River Breeding Laboratories, Kingston, N.Y. Within a single experiment, mice and rats were sex and age matched.
# (§2) The compounds of Formula (I) were used either as the free base or in the appropriate salt form. Levamisole was used as the hydrochloride salt. The compounds were homogenized in 0.5% tragacanth. Compounds were administered by gavage at the indicated dose in a final volume of 10 ml/kg. Nordihydroguaiaretic acid (NDGA) was solubilized in dimethylacetamide and diluted with olive oil for subcutaneous administration.
# Mice were pretreated with either the test compound or vehicle one hour before the intraperitoneal injection of a 1.0% carrageenan suspension in saline (0.2 ml/mouse). Mice were sacrificed by cervical dislocation two hours after injection, and 3.0 ml of phosphate buffered saline, without Ca^++ or Mg^++, was injected into the peritoneum. Following massage, a 2.0 ml aliquot of the lavage fluid was removed, and the total cell count determined on a Coulter counter and differential cell count determined by microscopic examination of Giesma-stained slides.
# [2] = test system: Arachidonic Acid-Induced Rat Paw Edema; assay: Arachidonic acid-induced rat paw swelling; type: in vivo, rat (male Lewis)
# Excerpt: as §1
# Auranofin, phenidone, indomethacin, naproxen, and ibuprofen were each used as the free base. The compounds of Formula (I) were used either as the free base or in the appropriate salt form. Levamisole was used as the hydrochloride salt. The compounds were homogenized in 0.5% tragacanth. Compounds were administered by gavage at the indicated dose in a final volume of 10 ml/kg. Nordihydroguaiaretic acid (NDGA) was solubilized in dimethylacetamide and diluted with olive oil for subcutaneous administration.
# After determining pretreatment paw volumes by plethysmography by the method of Webb and Griswold, J. Pharmacol. Methods, 12, 149-153 (1984), rats were given test compound or vehicle one hour prior to the subplantar injection of 0.1 ml of 1 mg/ml arachidonic acid. Paw volumes were then remeasured and compared to pretreatment values and the increase in paw volume was expressed as mean values ± S.D.
# [3] = test system: Carrageenan-Induced Cellular Infiltration into the Rat Air Pouch; assay: Carrageenan-induced air pouch inflammation; type: in vivo, rat (male Lewis)
# Excerpt: as §1, §2
# (§3) Rats were shaved on the dorsal flank, and then injected subcutaneously one day later with 20 ml of air to form a defined pouch, by the method of Sedgwick et al., J. Pathology, 141, 483-495 (1983). The air pouch was reinflated as necessary over the next 6 days. To assay anti-inflammatory activity, animals were treated orally with test compound or vehicle (10 ml/kg) one hour before injection of 2.0 ml of a 2.0% carrageenan suspension containing […] penicillin and 100 µg/ml streptomycin into the air pouch. In other experiments, 5 ml of 0.1% arachidonic acid in 0.2M bicarbonate buffer was injected two hours after drug treatment. Animals were sacrificed using CO2 three hours after instillation of irritant. The exudate was then aspirated from the pouch and neutrophil count and differential cell count were measured.
# [4] = test system: Arachidonic Acid-Induced Cellular Infiltration into the Rat Air Pouch; assay: Arachidonic acid-induced air pouch inflammation; type: in vivo, rat (male Lewis)
# Excerpt: as §1, §2, §3
# [5] = biological target: T1, Cyclooxygenase (Rattus norvegicus, UniProt Q63921); assay: Cyclooxygenase activity (PGD2) in RBL-1 cell extracts, 10,000 x g supernatant; type: biochemical; conditions: Table 8
# T1 construct: The activities of these enzymes in extracts of RBL-1 cells were assayed; host or cells: RBL-1
# T1 sequence (Q63921 27-602): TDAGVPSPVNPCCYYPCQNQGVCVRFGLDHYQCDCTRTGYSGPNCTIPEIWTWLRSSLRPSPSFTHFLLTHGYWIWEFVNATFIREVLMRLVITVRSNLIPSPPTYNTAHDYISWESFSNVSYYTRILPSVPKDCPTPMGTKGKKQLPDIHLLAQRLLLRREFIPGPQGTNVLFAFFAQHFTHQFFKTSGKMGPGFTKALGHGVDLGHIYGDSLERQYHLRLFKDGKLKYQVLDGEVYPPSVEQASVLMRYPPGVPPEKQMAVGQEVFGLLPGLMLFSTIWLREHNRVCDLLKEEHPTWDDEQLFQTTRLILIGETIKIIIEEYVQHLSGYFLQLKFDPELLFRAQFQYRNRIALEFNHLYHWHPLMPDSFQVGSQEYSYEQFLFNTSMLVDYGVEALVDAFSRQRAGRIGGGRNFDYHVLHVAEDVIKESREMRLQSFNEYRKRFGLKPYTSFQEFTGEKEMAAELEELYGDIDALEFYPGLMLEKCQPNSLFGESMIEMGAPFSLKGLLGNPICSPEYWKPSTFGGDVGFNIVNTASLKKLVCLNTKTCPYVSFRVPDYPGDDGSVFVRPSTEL
# Experimental: For in vitro experiments, compounds were dissolved at appropriate concentrations in ethanol or DMSO (dimethylsulfoxide) (final concentration≤1.0%) and then diluted to final concentrations using the buffers indicated in the text.
# RBL-1 cells were obtained from the American Type Culture Collection (#CRL 1378) and were grown at 37° C. (5% CO2 in air) in spinner culture in MEM supplemented with 10% heat inactivated fetal calf serum. Harvested cells were washed with 50 mM sodium phosphate buffer, pH 7.0, containing 1 mM EDTA and 0.1% gelatin, resuspended in fresh buffer (5×10^7 cells/ml) and disrupted by nitrogen cavitation using the Parr bomb at 750 psi for 10 min. The broken cell extract was then centrifuged at 10,000× g for 20 minutes (min) and the supernatant centrifuged at 100,000 xIg for 60 min. Aliquots (0.25 mls) of the supernatant were preincubated with or without drugs for 10 min, after which 10 μl CaCl2 (50 mM) was added and the reaction was initiated with 2.5 μl of 2.5 mM arachidonic acid-1-^14 C (final concentration was 25 μM; specific activity 20,000 dpm/nmole). After incubation for 3 min at 37° C., the reaction was terminated by addition of 2 volumes (0.5 ml) ice cold acetone and the sample was allowed to deproteinize on ice for 10 min prior to centrifugation at 1,000× g for 10 min. […] Arachidonic acid, 5-HETE, LTB4 and PGD2 were quantified with a Berthold LB 2832 autoscanner.
# [6] = test system: LTB4 synthesis by peritoneal exudate cells; assay: Ex vivo production of LTB4 from peritoneal exudate cells of drug-treated mice; type: in vivo, mouse; conditions: for inhibition at 200 mg/kg: Mus musculus, po, 200 mg/kg p.o.
# Excerpt: In the following Examples where mice were used, they were male Balb/c mice (20-28 g), and where rats were used, they were male Lewis rats (180-210 g). All mice and rats were obtained from Charles River Breeding Laboratories, Kingston, N.Y. Within a single experiment, mice and rats were sex and age matched. Auranofin, phenidone, indomethacin, naproxen, and ibuprofen were each used as the free base. The compounds of Formula (I) were used either as the free base or in the appropriate salt form. Levamisole was used as the hydrochloride salt. […] Nordihydroguaiaretic acid (NDGA) was solubilized in dimethylacetamide and diluted with olive oil for subcutaneous administration. Carrageenan-induced peritoneal exudate cells from normal or drug-treated mice were washed and suspended in 2.2 ml of phosphate buffered saline. […] The cell preparation was centrifuged at 1500 rpm for 10 min and the supernatant was extracted using a C-18 silica column. […] A tetrahydrofuran, methanol, water, acetic acid (25:30:45: 0.1) solvent system, adjusted to pH 5.5 with ammonium hydroxide, was used at a flow rate of 0.7 ml/min. Cell derived LTB4 was quantified utilizing standard curves constructed with known amounts of synthetic LTB4.
smiles,measurement,setting,value
O=C1CCN(c2ccccc2)N1 [Phenidone],"PMN infiltration, result in words",[1],effective
same,Change in Paw Volume,"[2]; 100 mg/kg, 2 hours post arachidonic acid",0.13 ± 0.05 mL
same,"Rat paw inflammatory response, result in words","[2]; rat, in vivo",inhibited significantly
same,Cellular Infiltrate MN,[3]; 100 mg/kg,3.5 ± 1.4 Total × 10^-6
same,Cellular Infiltrate PMN,[3]; 100 mg/kg,1.7 ± 0.6 Total × 10^-6
same,Exudate Volume,[3]; 100 mg/kg,1.5 ± 0.8 mL
same,"Cell infiltration into carrageenan air pouch, result in words","[3]; rat, in vivo",reduction in the PMN count and the PMN:mononuclear cell ratio
same,Cellular Infiltrate MN,[4]; 100 mg/kg,2.2 ± 1.5 Total × 10^-6
same,Cellular Infiltrate PMN,[4]; 100 mg/kg,1.3 ± 0.8 Total × 10^-6
same,Exudate Volume,[4]; 100 mg/kg,2.8 ± 0.4 mL
same,"Cell infiltration into arachidonic acid air pouch, result in words","[4]; rat, in vivo",significantly reduced PMN and mononuclear cell infiltration
same,IC50 Cyclooxygenase,[5],Inactive @ 100
same,inhibition at 200 mg/kg,[6]; Experiment 2,21%
same,inhibition at 200 mg/kg,[6]; Experiment 3,33%
same,"LTB4 production ex vivo, result in words","[6]; mouse, in vivo",weaker but inhibition of LTB4 synthesis
